Assay results taken from patent publication US5480887A, “Protease inhibitors” (Eli Lilly and Company, priority 1994, dated 1996).
Where two headings read alike, the source gives them in different places.

Columns and labels:
[1] = molecular target: T1, HIV-1 Protease (Human immunodeficiency virus type 1 group M subtype B, UniProt P04585); experiment: biochemical; conditions: read-out: Fluorescence Assay IC50 (converted)
T1 construct: HIV-1 Protease
Method: These compounds may be assayed using two assays: (1) an enzyme inhibition assay, and (2) an antiviral cell culture assay.
This assay is described in detail in published European Patent Application (EPA) 0 526 009, herein incorporated by reference. Using this assay, a number of the compounds, prepared above, were assayed for HIV protease inhibitory activity.
The assay is unable to test compounds at less than a concentration of 0.16 ng/mL.

[2] = tested on: HIV; experiment: microbe, parasite or virus in culture; type: cell-based; conditions: XTT, 450 nm, * (n) = average of n assays, read-out: Antiviral Activity IC90
Method: In addition, the compounds described in the present application may be tested using an antiviral cell culture assay as described in Weislow, O.S., J. of National Cancer Institute, 81(8), pages 577-586 (Apr. 19, 1989) herein incorporated by reference.
This assay compares the viability of HIV-infected cells in a cell culture medium relative to the viability of such cells in the presence of a test compound. The concentration of test compound necessary to inhibit 90% of the virus is then measured using the viability of the cells as an indicator of viral inhibition. This assay is carried out using cell lines that are sensitive to the lyric effects of HIV infection.
Specifically, this assay utilizes the metabolic reduction of a tetrazolium reagent, 2,3-bis[2-methoxy-4-nitro-5-sulfophenyl]-5-[(phenylamino)carbonyl]-2H-tetrazolium hydroxide (XTT). In the presence of a viable cell, the tetrazolium reagent, XTT, is reduced to provide XTT formazan which may be quantified using colorimetric determination (at 450 nm). The intensity of the chromogenic signal is directly proportional to the concentration of the XTT formazan, thus providing a measure of the quantity of viable cells.

[3] = Human immunodeficiency virus 1, concentration inhibiting 90% of the viral-induced toxicity
[4] = concentration inhibiting 90% of the viral-induced toxicity

Row | IC50 [1] | SMILES | IC90 [2, 3] | IC90 [2, 4]
1 | 11.1 nM | CC(C)(C)NC(=O)[C@@H]1C[C@@H]2SCC[C@@H]2CN1C[C@@H](O)[C@H](CSc1ccccc1)NC(=O)[C@@H](CS(=O)(=O)c1ccc(F)cc1)NC(=O)C(F)(F)F [Example 29, N-t-Butyl-octahydro-5[2R-hydroxy-3R-phenylthiomethyl-4-aza-5-oxo-6S-N(trifluoromethylcarbonyl)amino-7-p-fluorophenylsulfonyl-heptyl]-(3aR,7aS)-thieno[3,2-c]pyridine-(6S)-carboxamide] | 754 nM | 
2 | 1.96 nM | CC(C)(C)NC(=O)[C@@H]1C[C@@H]2SCC[C@@H]2CN1C[C@@H](O)[C@H](CSc1ccccc1)NC(=O)[C@@H](CS(=O)(=O)c1ccc2ccccc2c1)NC(=O)C(F)(F)F [Example 30B, N-t-Butyl-octahydro-5[2R-hydroxy-3R-phenylthiomethyl-4-aza-5-oxo-6S-N(trifluoromethylcarbonyl)amino-7-naphth-2-ylsulfonyl-heptyl]-(3aR,7aS)-thieno[3,2-c]pyridine-(6S)-carboxamide] | 203 nM | 
3 | 0.358 nM | C[C@H]1[C@@H](OC(=O)N[C@@H](CSc2ccccc2)[C@H](O)CN2C[C@H]3CCS[C@H]3C[C@H]2C(=O)NC(C)(C)C)CCS1(=O)=O [Example 37D, N-t-Butyl-octahydro-5[2R-hydroxy-3R-N(1',1'-dioxo-2'S-methyl-tetrahydrothiophen-3'S-yloxycarbonyl)amino-4-phenylthio)-butyl]-(3aR,7aS)-thieno[3,2-c] pyridine-(6S)-carboxamide methanesulfonate] |  | 1.8 nM
4 | 7.28 nM | C[C@@H]1[C@H](OC(=O)N[C@@H](CSc2ccccc2)[C@H](O)CN2C[C@H]3CCS[C@H]3C[C@H]2C(=O)NC(C)(C)C)CCS1(=O)=O [Example 38D, N-t-Butyl-octahydro-5[2R-hydroxy-3R-N(1',1'-dioxo-2'R-methyl-tetrahydrothiophen-3'R-yloxycarbonyl)amino-4-phenylthio)-butyl]-(3aR,7aS)-thieno[3,2c] pyridine-(6S)-carboxamide methanesulfonate] |  | 7.1 nM
